The record followed here is US9090593B2, “Bicyclic compounds as Pim inhibitors” (AMGEN INC., priority 2010, dated 2015).

Assay [1] has as its target T1, full length recombinant Pim-1 protein (Homo sapiens, UniProt P11309).
T1 construct: by full length recombinant Pim-1, Pim-2, or Pim-3 protein; hexahistidine tag followed by a thrombin cleavage site (N); made in house; host or cells: Sf9 (baculovirus) or E. coli (pET28)
Briefly: Pim-1 enzyme assay (HTRF, phosphorylation of biotinylated-BAD (S112) peptide). The note with it: enzyme assay, Pim-1; read-out: Pim_1_IC50. Format: biochemical. The method, boiled down:
(§1)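 Full-length His-tagged Pim-1 or Pim-2 (Sf9 or E. coli expressed, purified) phosphorylated biotinylated BAD (S112) peptide in 60 mM Hepes pH 7.0, 0.05% BSA, 2 mM DTT. Reaction stopped with 3 mM EDTA; phospho-BAD read by HTRF with Eu anti-phospho-BAD antibody and streptavidin-APC. IC50 from percent of control by 4-parameter logistic fit.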
(TR-FRET usually uses a lanthanide donor and a delayed reading to cut background.)

Assay [2] concerns the target T2, full length recombinant Pim-2 protein (Homo sapiens, UniProt Q9P1W9).
T2 construct: by full length recombinant Pim-1, Pim-2, or Pim-3 protein; hexahistidine tag followed by a thrombin cleavage site (N); made in house; host or cells: Sf9 (baculovirus) or E. coli (pET28)
The assay can be described thus: Pim-2 enzyme assay (HTRF, phosphorylation of biotinylated-BAD (S112) peptide). The class given is biochemical. The note with it: enzyme assay, Pim-2; read-out: Pim2_IC50. In outline: as §1

The target in assay [3] is T3, full length recombinant Pim-3 protein (Homo sapiens, UniProt Q86V86).
T3 construct: by full length recombinant Pim-1, Pim-2, or Pim-3 protein; purchased Millipore (UK)
The assay can be described thus: Pim-3 enzyme assay (HTRF, phosphorylation of biotinylated-BAD (S112) peptide). Format: biochemical. The note with it: read-out: Pim3 IC50. In outline: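 Full-length recombinant Pim-3 phosphorylates biotinylated BAD (S112) peptide in 60 mM Hepes pH 7.0, 0.05% BSA, 2 mM DTT; reaction stopped with 3 mM EDTA. Phospho-BAD detected by HTRF (Eu anti-phospho-BAD S112 antibody, streptavidin-APC). IC50 from percent-of-control values fitted to a 4-parameter logistic model.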

Assay [4] addresses T4, Pim-1 stably transfected into the U2OS human osteogenic sarcoma line (Homo sapiens, UniProt P11309).
T4 construct: expressed in transfected cells; host or cells: U2OS human osteogenic sarcoma line
The assay can be described thus: Pim cell assay, phospho-BAD normalized against total BAD, U2OS stably transfected with Pim-1. The note with it: U2OS cells stably transfected with Pim-1, phospho-BAD; high dose […]; read-out: Pim1_Cell_IC50. The class given is cell-based. In outline:
(§2)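 U2OS cells stably expressing Pim-1 or Pim-2 were plated overnight at 37 °C, then dosed over a 10-point curve (final 0.3% DMSO; DMSO alone as high control). Lysates assayed for phospho- and total BAD by Meso Scale immunoassay; % phosphoprotein = (2×phospho)/(phospho+total)×100.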

In assay [5] the target is T5, Pim-2 stably transfected into the U2OS human osteogenic sarcoma line (Homo sapiens, UniProt Q9P1W9).
T5 construct: expressed in transfected cells; host or cells: U2OS human osteogenic sarcoma line
Briefly: Pim cell assay, phospho-BAD normalized against total BAD, U2OS stably transfected with Pim-2. Note: high dose 31.6 µM. Format: cell-based. The note with it: U2OS cells stably transfected with Pim-2, phospho-BAD; high dose […]; read-out: Pim2_Cell_IC50. The method, boiled down: as §2

T5 sequence (Q9P1W9 whole entry): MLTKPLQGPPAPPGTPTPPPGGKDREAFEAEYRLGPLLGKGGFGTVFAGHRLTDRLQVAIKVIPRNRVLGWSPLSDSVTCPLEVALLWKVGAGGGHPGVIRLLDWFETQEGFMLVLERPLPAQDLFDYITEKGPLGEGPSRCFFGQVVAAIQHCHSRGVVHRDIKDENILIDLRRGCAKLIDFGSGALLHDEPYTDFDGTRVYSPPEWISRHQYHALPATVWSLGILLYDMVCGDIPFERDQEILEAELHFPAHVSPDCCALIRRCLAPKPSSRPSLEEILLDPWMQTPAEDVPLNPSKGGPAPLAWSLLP
T2 sequence (Q9P1W9 whole entry): as above
T1 sequence (P11309 whole entry): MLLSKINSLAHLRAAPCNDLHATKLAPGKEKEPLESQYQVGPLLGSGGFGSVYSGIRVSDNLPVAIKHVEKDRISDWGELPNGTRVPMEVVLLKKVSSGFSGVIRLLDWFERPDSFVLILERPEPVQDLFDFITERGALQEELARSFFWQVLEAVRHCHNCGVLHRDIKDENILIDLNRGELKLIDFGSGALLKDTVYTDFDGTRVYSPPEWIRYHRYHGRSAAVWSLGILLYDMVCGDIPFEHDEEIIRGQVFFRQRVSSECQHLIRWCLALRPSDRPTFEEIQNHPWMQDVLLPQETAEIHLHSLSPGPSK
T4 sequence (P11309 whole entry): as above

Consider `COc1ccc(F)c(-c2ccc3[nH]nc(-c4cncc(N5CCC(N)CC5)n4)c3c2)c1` [Example 61, 1-(6-(5-(2-fluoro-5-methoxyphenyl)-1H-indazol-3-yl)-2-pyrazinyl)-4-piperidinamine], for which the IC50 was 10 nM in assay [1]; 65 nM in assay [2]; 6 nM in assay [3]; 3010 nM in assay [4]; above 31600 nM in assay [5].

Regarding `N#Cc1cccc(-c2ccc3[nH]nc(-c4cncc(N5CCC(N)CC5)n4)c3c2)c1` [Example 62, 3-(3-(6-(4-amino-1-piperidinyl)-2-pyrazinyl)-1H-indazol-5-yl)benzonitrile], the IC50 in assay [1] was 11 nM; in assay [2], 59 nM; in assay [3] it was 7 nM; in assay [4], 599 nM; in assay [5], above 31600 nM.

As to `COc1cccc(-c2ccc3[nH]nc(-c4cncc(N5CCC(N)CC5)n4)c3c2)n1` [Example 63, 1-(6-(5-(6-methoxy-2-pyridinyl)-1H-indazol-3-yl)-2-pyrazinyl)-4-piperidinamine], the IC50 in assay [1] is 11 nM; in assay [2], 161 nM; in assay [3], 8 nM; in assay [4], 1690 nM; in assay [5], above 31600 nM.

With `CC(C)Oc1cccc(-c2ccc3[nH]nc(-c4cncc(N5CCC(N)CC5)n4)c3c2)n1` [Example 64, 1-(6-(5-(6-(1-methylethoxy)-2-pyridinyl)-1H-indazol-3-yl)-2-pyrazinyl)-4-piperidinamine], the IC50 in assay [1] was 20 nM; in assay [2], 150 nM; in assay [3] it was 16 nM; in assay [4], 3020 nM; in assay [5], above 31600 nM.

As for `CCOc1cccc(-c2ccc3[nH]nc(-c4cncc(N5CCC(N)CC5)n4)c3c2)n1` [Example 65, 1-(6-(5-(6-ethoxy-2-pyridinyl)-1H-indazol-3-yl)-2-pyrazinyl)-4-piperidinamine], the IC50 in assay [1] is 13 nM; in assay [2], 274 nM; in assay [3], 18 nM; in assay [4] it was 3530 nM; in assay [5], above 31600 nM.

Turning to `NC1CCN(c2cncc(-c3n[nH]c4ccc(-c5cccc(F)n5)cc34)n2)CC1` [Example 66, 1-(6-(5-(6-fluoro-2-pyridinyl)-1H-indazol-3-yl)-2-pyrazinyl)-4-piperidinamine], the IC50 in assay [1] was found to be 4 nM; in assay [2], 33 nM; in assay [3], 2 nM; in assay [4], 401 nM; in assay [5], 17300 nM.

In the case of `NC1CCN(c2cncc(-c3n[nH]c4ccc(-c5ccccc5F)cc34)n2)CC1` [Example 67, 1-(6-(5-(2-fluorophenyl)-1H-indazol-3-yl)-2-pyrazinyl)-4-piperidinamine], the IC50 in assay [1] turned out to be 2 nM; in assay [2], 10 nM; in assay [3] it was 1 nM; in assay [4], 380 nM; in assay [5], 15000 nM.

For `NC1CCN(c2cncc(-c3n[nH]c4ccc(-c5cccnc5O)cc34)n2)CC1` [Example 68, 3-(3-(6-(4-amino-1-piperidinyl)-2-pyrazinyl)-1H-indazol-5-yl)-2-pyridinol], the IC50 in assay [1] was 20 nM; in assay [2], 88 nM; in assay [3] it was 11 nM; in assay [4] it was above 31600 nM; in assay [5], above 31600 nM.

Take `COc1cc(-c2ccc3[nH]nc(-c4cncc(N5CCC(N)CC5)n4)c3c2)c(F)cn1` [Example 70, 1-(6-(5-(5-fluoro-2-methoxy-4-pyridinyl)-1H-indazol-3-yl)-2-pyrazinyl)-4-piperidinamine]: the IC50 in assay [1] is 5 nM; in assay [2], 18 nM; in assay [3], 4 nM; in assay [4] it was 255 nM; in assay [5] it was above 31600 nM.

Take `NC1CCN(c2cncc(-c3n[nH]c4ccc(-c5cccc(F)c5F)cc34)n2)CC1` [Example 71, 1-(6-(5-(2,3-difluorophenyl)-1H-indazol-3-yl)-2-pyrazinyl)-4-piperidinamine]: the IC50 in assay [1] came to 3 nM; in assay [2], 11 nM; in assay [3] it was 1 nM; in assay [4], 256 nM; in assay [5], 8820 nM.

For the compound `NC1CCN(c2cncc(-c3n[nH]c4ccc(-c5ccccc5O)cc34)n2)CC1` [Example 72, 2-(3-(6-(4-amino-1-piperidinyl)-2-pyrazinyl)-1H-indazol-5-yl)phenol], the IC50 in assay [1] was 3 nM; in assay [2] it was 82 nM; in assay [3], 5 nM; in assay [4] it was 533 nM; in assay [5] it was above 31600 nM.

As for `NC1CCN(c2cncc(-c3n[nH]c4ccc(-c5cc(=O)[nH]cc5Cl)cc34)n2)CC1` [Example 74, 4-(3-(6-(4-amino-1-piperidinyl)-2-pyrazinyl)-1H-indazol-5-yl)-5-chloro-2(1H)-pyridinone], the IC50 in assay [1] is 14 nM; in assay [2], 54 nM; in assay [3], 15 nM; in assay [4], above 31600 nM; in assay [5], above 31600 nM.

On to `NC1CCN(c2cncc(-c3n[nH]c4ccc(-c5ccccc5)cc34)n2)CC1` [Example 75, 1-(6-(5-phenyl-1H-indazol-3-yl)-2-pyrazinyl)-4-piperidinamine], for which the IC50 was 7 nM in assay [1]; 49 nM in assay [2]; 3 nM in assay [3]; 480 nM in assay [4]; above 31600 nM in assay [5].

For the compound `CS(=O)(=O)c1cccc(-c2ccc3[nH]nc(-c4cncc(N5CCC(N)CC5)n4)c3c2)c1` [Example 76, 1-(6-(5-(3-(methylsulfonyl)phenyl)-1H-indazol-3-yl)-2-pyrazinyl)-4-piperidinamine], the IC50 is 16 nM in assay [1]; 187 nM in assay [2]; 5 nM in assay [3]; 2740 nM in assay [4]; above 31600 nM in assay [5].

In the case of `COc1cccc(-c2ccc3[nH]nc(-c4cncc(N5CCC(N)CC5)n4)c3c2)c1` [Example 77, 1-(6-(5-(3-methoxyphenyl)-1H-indazol-3-yl)-2-pyrazinyl)-4-piperidinamine], the IC50 is 6 nM in assay [1]; 70 nM in assay [2]; 3 nM in assay [3]; 453 nM in assay [4]; above 31600 nM in assay [5].

For `NC1CCN(c2cncc(-c3n[nH]c4ccc(-c5cccc(O)c5)cc34)n2)CC1` [Example 78, 3-(3-(6-(4-amino-1-piperidinyl)-2-pyrazinyl)-1H-indazol-5-yl)phenol], the IC50 in assay [1] was 2 nM; in assay [2], 27 nM; in assay [3], 1 nM; in assay [4], 885 nM; in assay [5], 7970 nM.

Consider `NC1CCN(c2cncc(-c3n[nH]c4ccc(-c5ccn[nH]5)cc34)n2)CC1` [Example 80, 1-(6-(5-(1H-pyrazol-5-yl)-1H-indazol-3-yl)-2-pyrazinyl)-4-piperidinamine], for which the IC50 in assay [1] is 3 nM; in assay [2] it was 15 nM; in assay [3], 1 nM; in assay [4], 2380 nM; in assay [5], above 31600 nM.

With `Nc1cccc(-c2ccc3[nH]nc(-c4cncc(N5CCC(N)CC5)n4)c3c2)c1` [Example 81, 1-(6-(5-(3-aminophenyl)-1H-indazol-3-yl)-2-pyrazinyl)-4-piperidinamine], the IC50 turned out to be 2 nM in assay [1]; 29 nM in assay [2]; 3 nM in assay [3]; 395 nM in assay [4]; 7170 nM in assay [5].

With `NC1CCN(c2cncc(-c3n[nH]c4ccc(-c5ccccc5Cl)cc34)n2)CC1` [Example 83, 1-(6-(5-(2-chlorophenyl)-1H-indazol-3-yl)-2-pyrazinyl)-4-piperidinamine], the IC50 in assay [1] came out at 10 nM; in assay [2] it was 34 nM; in assay [3] it was 4 nM; in assay [4], 1420 nM; in assay [5], 22100 nM.

For `NC1CCN(c2cncc(-c3n[nH]c4ccc(-c5cc([N+](=O)[O-])ccc5F)cc34)n2)CC1` [Example 84, 1-(6-(5-(2-fluoro-5-nitrophenyl)-1H-indazol-3-yl)-2-pyrazinyl)-4-piperidinamine], the IC50 in assay [1] is 9 nM; in assay [2], 45 nM; in assay [3], 4 nM; in assay [4] it was 253 nM; in assay [5] it was above 31600 nM.

In the case of `NC1CCN(c2cncc(-c3n[nH]c4ccc(-c5cncc(F)c5)cc34)n2)CC1` [Example 85, 1-(6-(5-(5-fluoro-3-pyridinyl)-1H-indazol-3-yl)-2-pyrazinyl)-4-piperidinamine], the IC50 in assay [1] amounted to 5 nM; in assay [2], 36 nM; in assay [3], 1 nM; in assay [4], 176 nM; in assay [5], 7020 nM.
